Data: ChEMBL document CHEMBL3832087, “DailyMed|setid=a60f39f6-d590-4b00-8751-7f12b7ec5385 | ZAFIRLUKAST- zafirlukast tablet, film coated|American Health Packaging”
“And” between values parts separate entries of the source, which are not always exact repeats. Identical values can stand only once.

What was measured:
Type in all cases: ADME, organism-based
[1] = (§1) Evaluation of pharmacokinetic parameters for Zafirlukast following single oral administration to healthy boys and girls.; parameters: dose 20 mg, route oral; settings: both, human, in vivo, dose 20 mg, dosed compound id 45, dosed compound name ZAFIRLUKAST, regimen Single dose, route oral, tissue Plasma
[2] = test system: Homo sapiens; test: as §1; parameters: dose 20 mg, route oral; settings: in vivo, po, dosed compound id 45, dosed compound name ZAFIRLUKAST, regimen Single dose, tissue Plasma; for CL/F / Tmax: dose 20 mg
[3] = (§2) Evaluation of pharmacokinetic parameters for Zafirlukast following oral administration of Zafirlukast tablets in subjects of varying health status.; settings: human, dosed compound id 45, dosed compound name ZAFIRLUKAST, tissue Plasma
[4] = test system: Homo sapiens; test: as §2; settings: in vivo, po, dosed compound id 45, dosed compound name ZAFIRLUKAST, gender male and female, tissue Plasma

COc1cc(C(=O)NS(=O)(=O)c2ccccc2C)ccc1Cc1cn(C)c2ccc(NC(=O)OC3CCCC3)cc12 [ZAFIRLUKAST]
Tmax ([1]; gender male and female): 2.1 h
half-life [1]: 13.3 h
CL/F ([2]; gender male and female): 9.2 L/h and 11.4 L/h
Tmax ([2]; gender male and female): 2.5 h
CL/F ([2]; gender male): 19.4 L/h
Tmax ([2]; gender male): 2 h
AUC ([2]; gender male and female): 2458 ng·h/mL and 2027 ng·h/mL
Cmax ([2]; gender male and female): 756 ng/mL and 601 ng/mL
AUC ([2]; gender male): 1137 ng·h/mL
Cmax ([2]; gender male): 326 ng/mL
fraction unbound ([3]; read-out: Protein binding): 0.01
half-life ([3]; in vivo, gender male and female): 10 h
Tmax ([3]; in vivo): 3 h
Vd/F ([3]; in vivo, read-out: Vss/F): 70 L
t1/2 [4]: 8 h and 16 h and 10 h
